≈ marks a conversion by molar mass, not a printed value.
Columns and labels:
P. jirovecii = P. jirovecii colonisation; type: in vivo, human; settings: none developed PcP in one year
S. pyogenes = test: Sensitivity of CAP pathogens with/without antibiotic pretreatment; type: cell-based, Streptococcus pyogenes; settings: Abs. 4
H.influenzae = test: Broth microdilution; type: cell-based, Haemophilus influenzae; settings: for MIC90: Haemophilus influenzae
E. coli = test: Sensitivity of CAP pathogens with/without antibiotic pretreatment; type: cell-based, Escherichia coli
Kl. pneumoniae = test: as above; type: cell-based, Klebsiella pneumoniae
N.gonorrhoeae = test: microbe, parasite or virus in culture; type: cell-based; settings: Neisseria gonorrhoeae
Staph. coaq (−) = test: Sensitivity of CAP pathogens with/without antibiotic pretreatment; type: cell-based, coagulase-negative Staphylococcus
S. -pneumoniae = test: as above; type: cell-based, Streptococcus pneumoniae
[1] = test system: Other non-fermenting bacteria; test: as above; type: cell-based
Other Haemophilus sp. = test: as above; type: cell-based; settings: after pretreatment, Abs. 11
S. pneumoniae [2] = test: Broth microdilution; type: cell-based, Streptococcus pneumoniae; settings: for %Sus: NCCLS breakpoints (Amox/Clav 2/1 mcg/mL); for MIC90: Streptococcus pneumoniae
S. pneumoniae [3] = test: E-test MIC, children with URTI, Brazil; type: cell-based, Streptococcus pneumoniae; settings: for intermediate (I) / resistant (R) / susceptible (S): 137 isolates; for MIC90: Streptococcus pneumoniae
Enterococcus sp = test: Sensitivity of CAP pathogens with/without antibiotic pretreatment; type: cell-based
Other Enterobacteriacae = test: as above; type: cell-based, Enterobacteriaceae
PRSP = test: Broth microdilution; type: cell-based, Streptococcus pneumoniae; settings: for %Sus: NCCLS breakpoints (Amox/Clav 2/1 mcg/mL); for MIC90: Streptococcus pneumoniae, PRSP
P. aeruginosa = test: Sensitivity of CAP pathogens with/without antibiotic pretreatment; type: cell-based, Pseudomonas aeruginosa; settings: Abs. 3
[4] = test system: Streptococcus pyogenes (SPY); test: MIC; type: cell-based; settings: 2522 isolates
H. influenzae = test: Sensitivity of CAP pathogens with/without antibiotic pretreatment; type: cell-based, Haemophilus influenzae
S. aureus = test: as above; type: cell-based, Staphylococcus aureus; settings: after pretreatment, Abs. 4
[5] = test system: Total pathogens in community acquired pneumonia; test: as above; type: cell-based; settings: after pretreatment, Abs. 48
[6] = test system: Moraxella catarrhalis (MC); test: MIC; type: cell-based; settings: 2497 isolates
ERSP = test: Broth microdilution; type: cell-based, Streptococcus pneumoniae; settings: for %Sus: NCCLS breakpoints (Amox/Clav 2/1 mcg/mL); for MIC90: Streptococcus pneumoniae
[7] = test system: pathogens in community acquired pneumonia of different severity; test: Sensitivity of CAP pathogens by Fine severity group; type: cell-based
S. pneumoniae [8] = test: Broth microdilution; type: cell-based, Streptococcus pneumoniae; settings: 275 isolates
S. pneumoniae [9] = test: Susceptibility of bacteraemia isolates of children, Taiwan; type: cell-based, Streptococcus pneumoniae; settings: 79 isolates
[10] = test system: foreign body infection Staphylococcus epidermidis strains; test: NCCLS disk diffusion; type: cell-based; settings: 86 strains
[11] = test system: ‘wild type’ Staphylococcus epidermidis skin isolates; test: NCCLS disk diffusion; type: cell-based; settings: 52 isolates
F. necrophorum = test: E-test, 13 clinical isolates; type: cell-based, Fusobacterium necrophorum
[12] = test system: Haemophilus influenzae (HI); test: MIC; type: cell-based; settings: 7489 isolates
Streptococcus pneumoniae [13] = test: Susceptibility testing; type: cell-based; settings: 99 isolates tested
[14] = test system: Streptococcus pneumoniae (SPN); test: MIC; type: cell-based; settings: 8378 isolates
S. pneumoniae [15] = test: MIC of invasive strains, Saint George Hospital 2001–2004; type: cell-based, Streptococcus pneumoniae
Streptococcus pneumoniae [16] = test: BSAC agar dilution, lower respiratory isolates UK and Ireland; type: cell-based
S. pneumoniae [17] = test: PROTEKT Italy, NCCLS microdilution; type: cell-based, Streptococcus pneumoniae
[18] = test system: viridans group streptococci (VgS) and Streptococcus bovis; test: Broth microdilution and disk diffusion; type: cell-based; settings: nine species
S. pneumoniae (Sp) = test: Broth microdilution, point prevalence study Spain; type: cell-based, Streptococcus pneumoniae; settings: 360 isolates, February 2004; penicillin I+R
S. pneumoniae [19] = type: cell-based, Streptococcus pneumoniae
[20] = test system: viridans group streptococci (VGS); test: MIC; type: cell-based
S. pneumoniae (SPN) = test: SENTRY Brazil, NCCLS broth microdilution; type: cell-based, Streptococcus pneumoniae
S.pneumoniae = test: Italian survey of severe infections 2003, MIC; type: cell-based, Streptococcus pneumoniae

With CC[C@H]1OC(=O)[C@H](C)[C@@H](O[C@H]2C[C@@](C)(OC)[C@@H](O)[C@H](C)O2)[C@H](C)[C@@H](O[C@@H]2O[C@H](C)C[C@H](N(C)C)[C@H]2O)[C@](C)(O)C[C@@H](C)CN(C)[C@H](C)[C@@H](O)[C@]1(C)O [azithromycin] the “patients receiving prophylaxis who were colonized” value (P. jirovecii) was 17.2%, the “% of sensitive strains” value (S. pyogenes; after pretreatment) was 100.0% and the “% of sensitive strains” value (S. pyogenes; without pretreatment) was 100,0%. The MIC90 (H.influenzae) was 2 µg/mL (≈ 2.67 µM), the “%Sus” value (H.influenzae; NCCLS) was 99.1% and the “% of sensitive strains” value (E. coli; after pretreatment, Abs. 1) was 0.0%. The “% of sensitive strains” value (E. coli; without pretreatment, Abs. 5) was 0,0%, the “% of sensitive strains” value (Kl. pneumoniae; after pretreatment, Abs. 5) was 0.0% and the “% of sensitive strains” value (Kl. pneumoniae; without pretreatment, Abs. 4) was 0,0%. The MIC (N.gonorrhoeae; strain 76mu6) was 0.25 µg/mL (≈ 0.334 µM), the MIC (N.gonorrhoeae; strain 76mu10) was 0.25 µg/mL (≈ 0.334 µM) and the “% of sensitive strains” value (Staph. coaq (−); after pretreatment, Abs. 2) was 50.0%. For the same compound, the “% of sensitive strains” value (Staph. coaq (−); without pretreatment, Abs. 4) was 75.0%, the “% of sensitive strains” value (S. -pneumoniae; after antibiotic pretreatment, Abs. 3) was 100.0% and the “% of sensitive strains” value (S. -pneumoniae; without antibiotic pretreatment, Abs. 13) was 100,0%. For the same compound, the “% of sensitive strains” value ([1]; after pretreatment, Abs. 0) was 0.0%, the “% of sensitive strains” value ([1]; without pretreatment, Abs. 1) was 0,0% and the “% of sensitive strains” value (Other Haemophilus sp.) was 100.0%. The “%Sus” value (S. pneumoniae [2]) was 71.4%, the MIC90 (S. pneumoniae [2]) was > 32 µg/mL and the “intermediate (I)” value (S. pneumoniae [3]) was 1.5%. The “resistant (R)” value (S. pneumoniae [3]) was 8%, the “susceptible (S)” value (S. pneumoniae [3]) was 90.5% and the MIC90 (S. pneumoniae [3]) was 4 µg/mL (≈ 5.34 µM). The “% of sensitive strains” value (Enterococcus sp; after pretreatment, Abs. 0) was 0.0%, the “% of sensitive strains” value (Enterococcus sp; without pretreatment, Abs. 1) was 0,0% and the “% of sensitive strains” value (Other Enterobacteriacae; after pretreatment, Abs. 5) was 0.0%. For the same compound, the “% of sensitive strains” value (Other Enterobacteriacae; without pretreatment, Abs. 2) was 0,0%, the “%Sus” value (PRSP) was 23.0% and the MIC90 (PRSP) was > 32 µg/mL. The “% of sensitive strains” value (P. aeruginosa; after pretreatment) was 0.0%, the “% of sensitive strains” value (P. aeruginosa; without pretreatment) was 0,0% and the MIC90 [4] was 0.5 ig/ml. The “% of sensitive strains” value (H. influenzae; after pretreatment, Abs. 10) was 100.0%, the “% of sensitive strains” value (H. influenzae; without pretreatment, Abs. 26) was 100.0% and the “% of sensitive strains” value (S. aureus) was 75.0%. The “% of sensitive strains” value [5] was 66.7%, the MIC90 [6] was 0.25 ig/ml and the “%Sus” value (ERSP) was 0.3%. The MIC90 (ERSP) was > 32 µg/mL, the “sensitivity, total strains” value ([7]; higher severity group (Fine scores >70)) was 60.0% and the “sensitivity, total strains” value ([7]; lower severity group (Fine scores <70)) was 73.6%.
CC1(C)S[C@@H]2[C@H](NC(=O)Cc3ccccc3)C(=O)N2[C@H]1C(=O)O [penicillin] was tested, and the Susceptibility (S. pneumoniae [8]) was 83.6%, the “nonsusceptible isolates (MIC > 0.1 μg/mL)” value (S. pneumoniae [9]) was 82% and the MIC90 (H.influenzae) was > 16 µg/mL. The MIC (N.gonorrhoeae; strain 76mu6) was 16 µg/mL (≈ 47.8 µM), the MIC (N.gonorrhoeae; strain 76mu10) was 16 µg/mL (≈ 47.8 µM) and the MIC (N.gonorrhoeae; strain 92mu6) was 0.5 µg/mL (≈ 1.5 µM). For the same compound, the MIC (N.gonorrhoeae; strain 92mu13) was 0.5 µg/mL (≈ 1.5 µM), the “% resistant” value [10] was “More than 30%” and the “% resistant” value [11] was 46.2%. The MIC range (F. necrophorum) was 0.004 to 256 µg/mL, the MIC50 (F. necrophorum; Fusobacterium necrophorum) was 0.016 µg/mL (≈ 0.0478 µM) and the MIC90 (F. necrophorum; Fusobacterium necrophorum) was > 32 µg/mL. For the same compound, the “%Sus” value (S. pneumoniae [2]) was 60.6%, the MIC90 (S. pneumoniae [2]) was 2 µg/mL (≈ 5.98 µM) and the “intermediate (I)” value (S. pneumoniae [3]) was 23.4%. The “resistant (R)” value (S. pneumoniae [3]) was 10.2%, the “susceptible (S)” value (S. pneumoniae [3]) was 66.4% and the MIC90 (S. pneumoniae [3]) was 1.5 µg/mL (≈ 4.49 µM). The MIC90 [12] was 8 ig/ml, the resistant isolates (Streptococcus pneumoniae [13]) was 14.1% and the “%Sus” value (PRSP) was 0.0%. The MIC90 (PRSP) was 4 µg/mL (≈ 12 µM), the MIC90 [4] was 0.03 ig/ml and the MIC90 [14] was 1 ig/ml. For the same compound, the “% S” value (S. pneumoniae [15]) was 46%, the “%R” value (S. pneumoniae [15]) was 54% and the “resistance (PEN-NS >0.06, TET-R >1, ERY-R >0.5, CIP-R >2 mg/L)” value (Streptococcus pneumoniae [16]; Ireland 1999–2000, N 66) was 40.9%. For the same compound, the “resistance (same cut-offs)” value (Streptococcus pneumoniae [16]; Ireland 2000–2001, N 59) was 42.4%, the “resistance (same cut-offs)” value (Streptococcus pneumoniae [16]; Ireland 2001–2002, N 68) was 36.8% and the “resistance (same cut-offs)” value (Streptococcus pneumoniae [16]; Ireland 2002–2003, N 89) was 24.7%. For the same compound, the “resistance (same cut-offs)” value (Streptococcus pneumoniae [16]; Ireland 2003–2004, N 76) was 14.5%, the “resistance (same cut-offs)” value (Streptococcus pneumoniae [16]; UK 1999–2000, N 595) was 7.4% and the “resistance (same cut-offs)” value (Streptococcus pneumoniae [16]; UK 2000–2001, N 608) was 7.1%. For the same compound, the “resistance (same cut-offs)” value (Streptococcus pneumoniae [16]; UK 2001–2002, N 631) was 4.6%, the “resistance (same cut-offs)” value (Streptococcus pneumoniae [16]; UK 2002–2003, N 683) was 6.4% and the “resistance (same cut-offs)” value (Streptococcus pneumoniae [16]; UK 2003–2004, N 709) was 5.9%. For the same compound, the MIC90 [6] was 8 ig/ml, the total resistance (S. pneumoniae [17]; year 1: 2002) was 23.7% and the total resistance (S. pneumoniae [17]; year 2: 2003) was 23.4%. For the same compound, the “% S, range between species” value [18] was 65.5–98.1%, the resistance (S. pneumoniae (Sp)) was 42% and the “%Sus” value (ERSP) was 18.6%. For the same compound, the MIC90 (ERSP) was 4 µg/mL (≈ 12 µM), the intermediate susceptible (S. pneumoniae [19]) was 30% and the MIC50 [20] was 0.06 µg/mL (≈ 0.179 µM). For the same compound, the MIC90 [20] was 0.5 µg/mL (≈ 1.5 µM), the “MIC range of isolates with reduced susceptibility” value [20] was 0.25 to 4 µg/mL and the “isolates with reduced susceptibility” value ([20]; 107 strains) was 18.7%. The “% R (> 2 mg/L) to PEN” value (S. pneumoniae (SPN); 1998) was 3%, the “% S” value (S. pneumoniae (SPN); 1998) was 84% and the “% R (> 2 mg/L) to PEN” value (S. pneumoniae (SPN); 1999) was 6%. For the same compound, the “% S” value (S. pneumoniae (SPN); 1999) was 83%, the “% R (> 2 mg/L) to PEN” value (S. pneumoniae (SPN); 2000) was 5% and the “% S” value (S. pneumoniae (SPN); 2000) was 75%. For the same compound, the “% R (> 2 mg/L) to PEN” value (S. pneumoniae (SPN); 2001) was 8%, the “% S” value (S. pneumoniae (SPN); 2001) was 82% and the “% R (> 2 mg/L) to PEN” value (S. pneumoniae (SPN); 2002) was 8%. The “% S” value (S. pneumoniae (SPN); 2002) was 78%, the “% R (> 2 mg/L) to PEN” value (S. pneumoniae (SPN); 2003) was 10% and the “% S” value (S. pneumoniae (SPN); 2003) was 72%. For the same compound, the resistance (S.pneumoniae) was 20.0%.

Reference: paper PMC7129073 (Clinical Microbiology and Infection, 2015)
